This is an account of results in the NIST ThermoML archive (doi:10.1016/j.fluid.2009.01.011).

Numbers after ± are expanded uncertainties.

The data set can be described thus: activity coefficient (dimensionless); of the first substance listed, at infinite dilution; xn = mol fraction of the nth substance listed. To be noted: Liquid, Chromatography, x1 = 0.

As for `C#CCCCCCC` [1-octyne] + CCCC[N+]1(C)CCCC1.O=S(=O)([O-])C(F)(F)F, the activity coefficient (298.15 K) is 7.56 ± 0.33; the activity coefficient (308.15 K) is 7.63 ± 0.34; the activity coefficient (318.15 K) is 7.7 ± 0.34; the activity coefficient (328.15 K) is 7.76 ± 0.34; the activity coefficient (338.15 K) was 7.83 ± 0.35; the activity coefficient (348.15 K) amounted to 7.88 ± 0.35. Besides, the activity coefficient was 7.94 ± 0.35 (358.15 K) and 7.99 ± 0.35 (368.15 K).
In the case of `CCCO` [propan-1-ol] + CCCC[N+]1(C)CCCC1.O=S(=O)([O-])C(F)(F)F, the activity coefficient by setting is: (308.15 K) 1.26 ± 0.05; (318.15 K) 1.2 ± 0.05; (328.15 K) 1.14 ± 0.04; (338.15 K) 1.08 ± 0.04; (348.15 K) 1.04 ± 0.04; (358.15 K) 0.995 ± 0.035. Moreover, under “368.15 K”, the activity coefficient turned out to be 0.953 ± 0.034.
Turning to `CCCCCCC` [heptane] + CCCC[N+]1(C)CCCC1.O=S(=O)([O-])C(F)(F)F, the activity coefficient reads like this: (298.15 K) 71.5 ± 3.2; (308.15 K) 64.7 ± 2.9; (318.15 K) 59.3 ± 2.6; (328.15 K) 54.2 ± 2.4; (338.15 K) 50.4 ± 2.2; (348.15 K) 46.7 ± 2.1. Besides, the activity coefficient runs as follows: (358.15 K) 43.3 ± 1.9; (368.15 K) 40.8 ± 1.8.
`Cc1cccc(C)c1` [1,3-dimethylbenzene] + CCCC[N+]1(C)CCCC1.O=S(=O)([O-])C(F)(F)F: the activity coefficient turned out to be 3.44 ± 0.15 (308.15 K); 3.45 ± 0.15 (318.15 K); 3.47 ± 0.15 (328.15 K); 3.48 ± 0.15 (338.15 K); 3.5 ± 0.15 (348.15 K); 3.51 ± 0.15 (358.15 K). Moreover, under “368.15 K”, the activity coefficient came out at 3.53 ± 0.16.
`C#CCCCCC` [1-heptyne] + CCCC[N+]1(C)CCCC1.O=S(=O)([O-])C(F)(F)F: the activity coefficient amounted to 5.21 ± 0.23 (298.15 K); 5.3 ± 0.23 (308.15 K); 5.39 ± 0.24 (318.15 K); 5.47 ± 0.24 (328.15 K); 5.56 ± 0.25 (338.15 K); 5.64 ± 0.25 (348.15 K). Also, the activity coefficient was 5.7 ± 0.25 (358.15 K) and 5.78 ± 0.25 (368.15 K).
Regarding `C=CCCC` [1-pentene] + CCCC[N+]1(C)CCCC1.O=S(=O)([O-])C(F)(F)F, the activity coefficient by setting is: (298.15 K) 17.6 ± 0.8; (308.15 K) 16.3 ± 0.7; (318.15 K) 15.3 ± 0.7; (328.15 K) 14.4 ± 0.6; (338.15 K) 13.5 ± 0.6; (348.15 K) 12.8 ± 0.6. Further, for the setting “358.15 K”, the activity coefficient was found to be 12.2 ± 0.5.
As to `C=CCCCCCC` [oct-1-ene] + CCCC[N+]1(C)CCCC1.O=S(=O)([O-])C(F)(F)F, the activity coefficient was found to be 40.9 ± 1.8 (298.15 K); 38.4 ± 1.7 (308.15 K); 36.2 ± 1.6 (318.15 K); 34.3 ± 1.5 (328.15 K); 32.7 ± 1.5 (338.15 K); 31.2 ± 1.4 (348.15 K). Besides, the activity coefficient is 29.8 ± 1.3 (358.15 K) and 28.6 ± 1.3 (368.15 K).
In the case of `C1CCCCC1` [cyclohexane] + CCCC[N+]1(C)CCCC1.O=S(=O)([O-])C(F)(F)F, the activity coefficient (298.15 K) was determined as 25.7 ± 1.1; the activity coefficient (308.15 K) came out at 23.4 ± 1; the activity coefficient (318.15 K) came out at 21.4 ± 1; the activity coefficient (328.15 K) came to 19.7 ± 0.9; the activity coefficient (338.15 K) stood at 18.1 ± 0.8; the activity coefficient (348.15 K) stood at 16.8 ± 0.7. Moreover, the activity coefficient reads like this: (358.15 K) 15.6 ± 0.7; (368.15 K) 14.6 ± 0.6.
With `C1CCOC1` [tetrahydrofuran] + CCCC[N+]1(C)CCCC1.O=S(=O)([O-])C(F)(F)F, the activity coefficient worked out at 1.38 ± 0.05 (298.15 K); 1.39 ± 0.06 (308.15 K); 1.41 ± 0.06 (318.15 K); 1.42 ± 0.06 (328.15 K); 1.43 ± 0.06 (338.15 K); 1.44 ± 0.06 (348.15 K). In addition, the activity coefficient (358.15 K) stood at 1.45 ± 0.06 and the activity coefficient (368.15 K) came out at 1.46 ± 0.06.
As to `CCCCCC` [hexane] + CCCC[N+]1(C)CCCC1.O=S(=O)([O-])C(F)(F)F, the activity coefficient (298.15 K) amounted to 55.8 ± 2.5; the activity coefficient (308.15 K) worked out at 50.6 ± 2.3; the activity coefficient (318.15 K) turned out to be 46.4 ± 2.1; the activity coefficient (328.15 K) is 42.2 ± 1.9; the activity coefficient (338.15 K) was 38.8 ± 1.7; the activity coefficient (348.15 K) stood at 35.8 ± 1.6. The activity coefficient (358.15 K) worked out at 33.3 ± 1.5 and the activity coefficient (368.15 K) is 31.3 ± 1.4.
For the molecule `CCO` [ethanol] + CCCC[N+]1(C)CCCC1.O=S(=O)([O-])C(F)(F)F, the activity coefficient runs as follows: (298.15 K) 1.05 ± 0.04; (308.15 K) 1 ± 0.04; (318.15 K) 0.948 ± 0.034; (328.15 K) 0.9 ± 0.033; (338.15 K) 0.862 ± 0.032; (348.15 K) 0.827 ± 0.032. For the same molecule, the activity coefficient (358.15 K) is 0.791 ± 0.031 and the activity coefficient (368.15 K) turned out to be 0.763 ± 0.031.
In the case of `CCc1ccccc1` [ethylbenzene] + CCCC[N+]1(C)CCCC1.O=S(=O)([O-])C(F)(F)F, the activity coefficient (298.15 K) turned out to be 3.43 ± 0.15; the activity coefficient (308.15 K) was determined as 3.45 ± 0.15; the activity coefficient (318.15 K) amounted to 3.46 ± 0.15; the activity coefficient (328.15 K) came out at 3.48 ± 0.15; the activity coefficient (338.15 K) amounted to 3.5 ± 0.15; the activity coefficient (348.15 K) was 3.51 ± 0.15. Also, the activity coefficient was determined as 3.53 ± 0.16 (358.15 K) and 3.54 ± 0.16 (368.15 K).
`CCCCO` [butan-1-ol] + CCCC[N+]1(C)CCCC1.O=S(=O)([O-])C(F)(F)F: the activity coefficient was found to be 1.49 ± 0.06 (328.15 K); 1.42 ± 0.06 (338.15 K); 1.35 ± 0.05 (348.15 K); 1.29 ± 0.05 (358.15 K); 1.24 ± 0.05 (368.15 K).
Take `CO` [methanol] + CCCC[N+]1(C)CCCC1.O=S(=O)([O-])C(F)(F)F: the activity coefficient by setting is: (298.15 K) 0.717 ± 0.03; (308.15 K) 0.684 ± 0.029; (318.15 K) 0.655 ± 0.029; (328.15 K) 0.628 ± 0.029; (338.15 K) 0.604 ± 0.028; (348.15 K) 0.581 ± 0.028. The activity coefficient by setting is: (358.15 K) 0.563 ± 0.028; (368.15 K) 0.543 ± 0.028.
